Test results: patent US10259810B2, “N-sulfonylated pyrazolo[3,4-b]pyridin-6-carboxamides and method of use” (AbbVie S.à.r.l., priority 2015, dated 2019)
Where two headings read alike, the source gives them in different places.

Tests used:
Format in all cases: cell-based
CFTR ΔF508 = molecular target: T1, CFTR ΔF508 (Homo sapiens, UniProt P13569, DEL508-508); experiment: Chronic TECC assay, primary bronchial epithelial cells of CF patients homozygous for CFTR ΔF508 (corrector, co-corrector and potentiator); details: chronic TECC; for % Activity at 1 μM (Ieq*) / % Activity at 1 μM (AUC**): test compound at 1 μM
T1 construct: bronchial epithelial cells isolated from CF patients homozygous for the CFTR ΔF508 mutation; McGill University; Asterand; University of North Carolina hAEC-CF; host or cells: primary human bronchial epithelial cells from CF patients homozygous for ΔF508, differentiated at air-liquid interface
T1 sequence (P13569 with tags, fused parts or gaps DEL508-508): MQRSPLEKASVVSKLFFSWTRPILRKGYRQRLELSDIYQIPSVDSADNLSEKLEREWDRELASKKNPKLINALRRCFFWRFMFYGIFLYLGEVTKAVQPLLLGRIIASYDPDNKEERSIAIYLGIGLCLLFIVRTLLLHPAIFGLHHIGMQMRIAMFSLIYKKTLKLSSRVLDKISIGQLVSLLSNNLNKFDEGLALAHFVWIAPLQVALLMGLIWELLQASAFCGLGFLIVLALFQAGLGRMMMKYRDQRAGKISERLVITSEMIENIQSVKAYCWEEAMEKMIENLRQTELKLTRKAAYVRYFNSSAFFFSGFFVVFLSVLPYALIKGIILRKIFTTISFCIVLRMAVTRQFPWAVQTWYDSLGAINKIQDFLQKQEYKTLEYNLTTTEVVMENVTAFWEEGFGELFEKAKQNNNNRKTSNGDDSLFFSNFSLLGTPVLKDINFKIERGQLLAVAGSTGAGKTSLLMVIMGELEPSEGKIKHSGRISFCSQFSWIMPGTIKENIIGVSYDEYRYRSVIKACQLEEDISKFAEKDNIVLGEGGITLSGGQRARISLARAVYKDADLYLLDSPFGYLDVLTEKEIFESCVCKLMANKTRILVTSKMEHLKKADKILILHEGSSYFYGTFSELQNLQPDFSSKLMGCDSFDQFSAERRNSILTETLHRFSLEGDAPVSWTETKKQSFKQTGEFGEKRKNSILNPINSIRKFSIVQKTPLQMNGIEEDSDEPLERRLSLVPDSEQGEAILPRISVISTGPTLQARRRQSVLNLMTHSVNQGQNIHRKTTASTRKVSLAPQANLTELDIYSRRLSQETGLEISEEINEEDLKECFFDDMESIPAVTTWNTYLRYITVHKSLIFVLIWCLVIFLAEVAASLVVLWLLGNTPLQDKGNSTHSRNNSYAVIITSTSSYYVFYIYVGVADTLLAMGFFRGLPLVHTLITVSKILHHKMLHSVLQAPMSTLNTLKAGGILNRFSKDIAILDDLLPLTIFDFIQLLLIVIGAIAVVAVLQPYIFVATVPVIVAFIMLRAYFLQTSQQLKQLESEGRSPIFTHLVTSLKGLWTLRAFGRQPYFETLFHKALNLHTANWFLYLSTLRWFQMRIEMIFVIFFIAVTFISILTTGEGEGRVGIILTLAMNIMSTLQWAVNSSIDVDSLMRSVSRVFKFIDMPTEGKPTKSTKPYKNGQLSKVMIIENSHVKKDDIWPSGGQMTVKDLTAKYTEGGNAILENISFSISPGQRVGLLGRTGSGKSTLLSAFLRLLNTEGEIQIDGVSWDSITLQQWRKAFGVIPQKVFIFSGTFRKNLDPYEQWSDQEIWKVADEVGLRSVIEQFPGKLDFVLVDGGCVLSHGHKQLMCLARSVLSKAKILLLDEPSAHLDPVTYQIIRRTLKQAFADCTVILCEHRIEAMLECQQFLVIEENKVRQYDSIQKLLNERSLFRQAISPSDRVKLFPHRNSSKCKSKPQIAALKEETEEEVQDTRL
Procedure, shortened: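 Primary bronchial epithelial cells from ΔF508-homozygous CF patients on collagen IV-coated Transwells were chronically treated with test compound plus corrector and potentiator, which were re-added before recording. Ieq was derived from PD and Rt in NaCl-Ringer, pH 7.4, at 37° C, with apical amiloride and bilateral forskolin, recorded every 2 min over 20 min. Ieq increase was normalized to controls, and EC50 was taken from per-well concentrations.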

ΔF508-CFTR [1] = molecular target: T2, ΔF508-CFTR (Homo sapiens, UniProt P13569, DEL508-508); experiment: CFTR cell surface levels using HRP-tagged ΔF508-CFTR expressing CFBE cells, in the presence of a co-corrector; details: HRP-tagged ΔF508-CFTR CFBE cells, in the presence of 3 μM co-corrector; for EC50: read-out: EC50
T2 construct: host or cells: CFBE41o-, doxycycline-inducible
T2 sequence (P13569 with tags, fused parts or gaps DEL508-508): as above
Procedure, shortened: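 Chemiluminescent read-out of surface HRP (15 min, dark) after PBS washes. Activity is normalized as 100×(sample−DMSO)/(3 μM co-corrector alone−DMSO).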

ΔF508-CFTR [2] = molecular target: T2, ΔF508-CFTR; experiment: CFTR cell surface levels using HRP-tagged ΔF508-CFTR expressing CFBE cells, intrinsic corrector capacity; parameters: % Activation: concentration or dose not given beside the values; details: HRP-tagged ΔF508-CFTR expressing CFBE41o- cells, compound alone (intrinsic corrector capacity), 20 hours at 33° C.; for EC50: read-out: EC50
Procedure, shortened: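 Read-out: chemiluminescent HRP activity of ECL4-HRP-tagged ΔF508-CFTR at the cell surface, 15 min substrate in dark. Normalized as 100×(sample−DMSO)/(positive control−DMSO).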

[3] = Ieq = calculations based on the maximum current, read-out: EC50 (nM) (Ieq*)
[4] = Ieq = calculations based on the maximum current
[5] = AUC = full area under the curve upon forskolin stimulation, read-out: EC50 (nM) (AUC**)
[6] = AUC = full area under the curve upon forskolin stimulation

Row | Structure (SMILES) | EC50 (CFTR ΔF508; [3]) [nM] | % Activity at 1 μM (Ieq*) (CFTR ΔF508; [4]) [%] | % Activation (ΔF508-CFTR [1]) [%] | EC50 (ΔF508-CFTR [1]) [µM] | % Activation (ΔF508-CFTR [2]) [%] | EC50 (ΔF508-CFTR [2]) [µM] | EC50 (CFTR ΔF508; [5]) [nM] | % Activity at 1 μM (AUC**) (CFTR ΔF508; [6]) [%] | % Activity at 3 μM (AUC**) (CFTR ΔF508; test compound at 3 μM, AUC = full area under the curve upon forskolin stimulation) [%]
1 | CC(C)c1nn(C2CCCCC2)c2nc(C(=O)NS(C)(=O)=O)cc(-c3cnc(N4CCC(C#N)CC4)nc3)c12 [Compound 119, 4-[2-(4-cyanopiperidin-1-yl)pyrimidin-5-yl]-1-cyclohexyl-N-(methanesulfonyl)-3-(propan-2-yl)-1H-pyrazolo[3,4-b]pyridine-6-carboxamide] | > 1000 | 157 | 389.93 | 0.331 | 188.53 | 0.52 |  |  | 
2 | CC(=O)N1CCC(F)(COc2cc(C(=O)NS(C)(=O)=O)nc3c2c(C2CCC2)nn3-c2ccccc2)CC1 [Compound 274, 4-[(1-acetyl-4-fluoropiperidin-4-yl)methoxy]-3-cyclobutyl-N-(methanesulfonyl)-1-phenyl-1H-pyrazolo[3,4-b]pyridine-6-carboxamide] |  |  | 300 | 0.398 | 159.05 | 0.842 | > 300 | 224.99 | 
3 | COCC1CCN(c2cc(C(=O)NS(C)(=O)=O)nc3c2c(C(C)C)nn3-c2ccc(F)cc2)CC1 [Compound 168, 1-(4-fluorophenyl)-N-(methanesulfonyl)-4-[4-(methoxymethyl)piperidin-1-yl]-3-(propan-2-yl)-1H-pyrazolo[3,4-b]pyridine-6-carboxamide] |  |  | 581.55 | 0.41 | 399.2 | 0.338 | 38.2 | 282.45 | 
4 | COC1CCN(c2cc(C(=O)NS(C)(=O)=O)nc3c2c(C(C)C)nn3-c2ccc(F)cc2)CC1 [Compound 167, 1-(4-fluorophenyl)-N-(methanesulfonyl)-4-(4-methoxypiperidin-1-yl)-3-(propan-2-yl)-1H-pyrazolo[3,4-b]pyridine-6-carboxamide] |  |  | 429.4 | 0.0818 | 260.6 | 0.313 | 32 | 260 | 
5 | C[C@@H](C1CCN(c2cc(C(=O)NS(=O)(=O)N(C)C)nc3c2c(C2CCC2)nn3-c2ccc(F)cc2)CC1)N1CCOCC1 [Compound 480, 3-cyclobutyl-N-(dimethylsulfamoyl)-1-(4-fluorophenyl)-4-{4-[(1S)-1-(morpholin-4-yl)ethyl]piperidin-1-yl}-1H-pyrazolo[3,4-b]pyridine-6-carboxamide] |  |  | 545.77 | 0.0871 | 322.45 | 0.136 |  | 548.575 | 
6 | COC1CCN(c2cc(C(=O)NS(C)(=O)=O)nc3c2c(C(C)C)nn3-c2ccnc(N3CCCC3)c2)CC1 [Compound 188, N-(methanesulfonyl)-4-(4-methoxypiperidin-1-yl)-3-(propan-2-yl)-1-[2-(pyrrolidin-1-yl)pyridin-4-yl]-1H-pyrazolo[3,4-b]pyridine-6-carboxamide] |  |  | 405.37 | 0.16 | 214.93 | 0.274 |  | 257.3 | 
7 | COCC1CCN(c2cc(C(=O)NS(=O)(=O)C3CCOC3)nc3c2c(C2CCC2)nn3-c2ccccc2)CC1 (stereo not drawn) [Compound 369, 3-cyclobutyl-4-[4-(methoxymethyl)piperidin-1-yl]-N-(oxolane-3-sulfonyl)-1-phenyl-1H-pyrazolo[3,4-b]pyridine-6-carboxamide] |  |  | 444 | 0.106 | 292.7 | 0.101 | 8.3 | 583.16 | 
8 | CNS(=O)(=O)NC(=O)c1cc(N2CCC(N3CCN(C4CC4)CC3)CC2)c2c(C3CCC3)nn(-c3ccccc3)c2n1 [Compound 558, 3-cyclobutyl-4-[4-(4-cyclopropylpiperazin-1-yl)piperidin-1-yl]-N-(methylsulfamoyl)-1-phenyl-1H-pyrazolo[3,4-b]pyridine-6-carboxamide] |  |  | 571.35 | 0.106 | 399.1 | 0.532 | 4.74 | 221.9818 | 
9 | CC(C)c1nn(-c2cccc(N(C)C)c2)c2nc(C(=O)NS(C)(=O)=O)cc(-c3ccc(N(C)C4CCOCC4)cc3)c12 [Compound 96, 1-[3-(dimethylamino)phenyl]-N-(methanesulfonyl)-4-{4-[methyl(oxan-4-yl)amino]phenyl}-3-(propan-2-yl)-1H-pyrazolo[3,4-b]pyridine-6-carboxamide] | < 30 | 310 | 707.5 | 0.473 | 406.6 | 0.367 |  |  | 
10 | CS(=O)(=O)NC(=O)c1cc(N2CCC(OCC3CC3)CC2)c2c(C3CCC3)nn(-c3ccccc3)c2n1 [Compound 230, 3-cyclobutyl-4-[4-(cyclopropylmethoxy)piperidin-1-yl]-N-(methanesulfonyl)-1-phenyl-1H-pyrazolo[3,4-b]pyridine-6-carboxamide] |  |  | 440.1 | 0.18 | 243.75 | 0.406 | 27 | 265.44 | 
11 | Cc1cc(N2CCN(c3cc(C(=O)NS(=O)(=O)N(C)C)nc4c3c(C3CCC3)nn4C3CCCCC3)CC2)ccn1 [Compound 535, 3-cyclobutyl-1-cyclohexyl-N-(dimethylsulfamoyl)-4-[4-(2-methylpyridin-4-yl)piperazin-1-yl]-1H-pyrazolo[3,4-b]pyridine-6-carboxamide] |  |  | 670.35 | 1.25 | 385.8 | 0.389 |  | 335.0294 | 
12 | CC(C)c1nn(-c2cccc(N(C)C)c2)c2nc(C(=O)NS(C)(=O)=O)cc(N3CCC(C#N)CC3)c12 [Compound 160, 4-(4-cyanopiperidin-1-yl)-1-[3-(dimethylamino)phenyl]-N-(methanesulfonyl)-3-(propan-2-yl)-1H-pyrazolo[3,4-b]pyridine-6-carboxamide] |  |  | 490.4 | 0.202 | 285.57 | 0.309 | 160 | 190 | 
13 | CN(C)S(=O)(=O)NC(=O)c1cc(N2CCC(CN3CCOCC3)CC2)c2c(C3CCC3)nn(-c3ccc(F)cc3)c2n1 [Compound 409, 3-cyclobutyl-N-(dimethylsulfamoyl)-1-(4-fluorophenyl)-4-{4-[(morpholin-4-yl)methyl]piperidin-1-yl}-1H-pyrazolo[3,4-b]pyridine-6-carboxamide] |  |  | 481.1 | 0.108 | 245.4 | 0.155 | 150 | 420 | 
14 | CN(C)S(=O)(=O)NC(=O)c1cc(N2CCC(N3CCN(C4CC4)CC3)CC2)c2c(C3CCC3)nn(-c3ccccc3)c2n1 [Compound 549, 3-cyclobutyl-4-[4-(4-cyclopropylpiperazin-1-yl)piperidin-1-yl]-N-(dimethylsulfamoyl)-1-phenyl-1H-pyrazolo[3,4-b]pyridine-6-carboxamide] |  |  | 476.35 | 0.18 | 276.9 | 0.233 | 243 | 373.3333 | 
15 | COCC1CN(C2CCN(c3cc(C(=O)NS(=O)(=O)N(C)C)nc4c3c(C3CCC3)nn4-c3ccc(F)cc3)CC2)CCO1 (stereo not drawn) [Compound 379, 3-cyclobutyl-N-(dimethylsulfamoyl)-1-(4-fluorophenyl)-4-{4-[2-(methoxymethyl)morpholin-4-yl]piperidin-1-yl}-1H-pyrazolo[3,4-b]pyridine-6-carboxamide] |  |  | 440.55 | 0.0611 | 268.45 | 0.141 | 43 |  | 
16 | CN1CCN(S(=O)(=O)NC(=O)c2cc(N3CCC(N4CCOCC4)CC3)c3c(C4CCC4)nn(-c4ccc(F)cc4)c3n2)CC1 [Compound 624, 3-cyclobutyl-1-(4-fluorophenyl)-N-(4-methylpiperazine-1-sulfonyl)-4-[4-(morpholin-4-yl)piperidin-1-yl]-1H-pyrazolo[3,4-b]pyridine-6-carboxamide] |  |  | 274.15 | 0.549 | 100.59 | 1.2 |  |  | 310
17 | CS(=O)(=O)NC(=O)c1cc(OCCN2CCS(=O)(=O)CC2)c2c(C3CCC3)nn(-c3ccccc3)c2n1 [Compound 243, 3-cyclobutyl-4-[2-(1,1-dioxo-1λ^6,4-thiazinan-4-yl)ethoxy]-N-(methanesulfonyl)-1-phenyl-1H-pyrazolo[3,4-b]pyridine-6-carboxamide] |  |  | 204.1 | 3.33 | 78.11 | 3.34 |  | 165.81 | 
